Test results reported in ChEMBL document CHEMBL5360669, “Novel Pyrazoloquinoline Compounds as KRAS Inhibitors for Treating Cancer” (ACS Med Chem Lett, 2023).

Tests used:
GTPase KRas [1] = target: T1, GTPase KRas (Homo sapiens, UniProt P01116, G12C); test: Inhibition of KRAS G12C mutant (unknown origin) by measuring exchange of bodipy-GDP for GppNHp incubated for 2 hrs
GTPase KRas [2] = target: T1, GTPase KRas; test: Inhibition of KRAS G12C mutant (unknown origin) incubated for 2 hrs
[3] = Inhibition of KRAS G12C WB mutant (unknown origin) incubated for 2 hrs; design: species or system Homo sapiens

Measured: IC50

T1 sequence (P01116 whole entry G12C): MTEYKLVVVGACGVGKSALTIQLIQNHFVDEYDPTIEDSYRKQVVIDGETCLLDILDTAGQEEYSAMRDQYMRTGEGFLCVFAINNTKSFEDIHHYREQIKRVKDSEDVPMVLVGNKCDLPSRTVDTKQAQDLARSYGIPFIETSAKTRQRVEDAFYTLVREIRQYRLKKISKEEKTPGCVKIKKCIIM

C=C(F)C(=O)N1CC[C@H](n2ncc3c(O[C@@H](C)[C@@H]4CCCN4C)nc4c(F)c(-c5nccc6cccc(C#N)c56)c(Cl)cc4c32)C[C@H]1CC#N
≤ 100 nM: all assays above

COC/C=C/C(=O)N1CC[C@H](n2ncc3c(O[C@@H](C)[C@@H]4CCCN4C)nc4c(F)c(-c5cccc6cccc(C#N)c56)c(Cl)cc4c32)C[C@H]1CC#N
≤ 100 nM: all assays above

CC#CC(=O)N1CC[C@H](n2ncc3c(O[C@@H](C)[C@@H]4CCCN4C)nc4c(F)c(-c5nccc6cccc(C#N)c56)c(Cl)cc4c32)C[C@H]1CC#N
≤ 100 nM: all assays above

COC/C=C/C(=O)N1CC[C@H](n2ncc3c(O[C@@H](C)[C@@H]4CCCN4C)nc4c(F)c(-c5nccc6cccc(C#N)c56)c(Cl)cc4c32)C[C@H]1CC#N
≤ 100 nM: all assays above

CC#CC(=O)N1CC[C@H](n2ncc3c(O[C@@H](C)[C@@H]4CCCN4C)nc4c(F)c(-c5cccc6cccc(C#N)c56)c(C)cc4c32)C[C@H]1CC#N
≤ 100 nM: all assays above

C=C(F)C(=O)N1CC[C@H](n2ncc3c(N4CC(N(C)CC)C4)nc4c(F)c(-c5c(C)c(C)cc6[nH]ncc56)c(Cl)cc4c32)C[C@H]1CC#N
≤ 100 nM: all assays above
